Calls of active or inactive are those of the source.
Tests used:
[1] = loss of viability in HepG2 cells – cell-based, CellTiter-Glo, cherry-picked, cytotoxicity control for Shn3 inhibitor project, dose response (AID 624134); format: functional
[2] = target: Photoreceptor-specific nuclear receptor (Homo sapiens, UniProt Q9Y5X4); format: functional, cell-based;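 note: CHO-S cells with Gal4-NCOR and VP16-NR2E3 two-hybrid luciferase reporter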
[3] = target: T1, Calpain-2 catalytic subunit (Sus scrofa, UniProt P43367); test: m-calpain protease blockers, concentration series – biochemical, fluorogenic peptide substrate, dose response (AID 1420); format: functional
T1 sequence (P43367 whole entry): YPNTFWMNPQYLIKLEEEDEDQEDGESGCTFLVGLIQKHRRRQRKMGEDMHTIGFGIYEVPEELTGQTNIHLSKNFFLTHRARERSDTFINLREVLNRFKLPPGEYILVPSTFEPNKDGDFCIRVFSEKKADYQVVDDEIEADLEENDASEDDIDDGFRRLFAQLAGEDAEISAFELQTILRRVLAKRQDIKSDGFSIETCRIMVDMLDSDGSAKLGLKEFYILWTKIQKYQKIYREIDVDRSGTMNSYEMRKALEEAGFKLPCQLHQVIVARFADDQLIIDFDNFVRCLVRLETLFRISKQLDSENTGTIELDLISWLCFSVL

Protein skinhead-1 = target: T2, Protein skinhead-1 (Caenorhabditis elegans, UniProt P34707); format: functional
T2 sequence (P34707 whole entry): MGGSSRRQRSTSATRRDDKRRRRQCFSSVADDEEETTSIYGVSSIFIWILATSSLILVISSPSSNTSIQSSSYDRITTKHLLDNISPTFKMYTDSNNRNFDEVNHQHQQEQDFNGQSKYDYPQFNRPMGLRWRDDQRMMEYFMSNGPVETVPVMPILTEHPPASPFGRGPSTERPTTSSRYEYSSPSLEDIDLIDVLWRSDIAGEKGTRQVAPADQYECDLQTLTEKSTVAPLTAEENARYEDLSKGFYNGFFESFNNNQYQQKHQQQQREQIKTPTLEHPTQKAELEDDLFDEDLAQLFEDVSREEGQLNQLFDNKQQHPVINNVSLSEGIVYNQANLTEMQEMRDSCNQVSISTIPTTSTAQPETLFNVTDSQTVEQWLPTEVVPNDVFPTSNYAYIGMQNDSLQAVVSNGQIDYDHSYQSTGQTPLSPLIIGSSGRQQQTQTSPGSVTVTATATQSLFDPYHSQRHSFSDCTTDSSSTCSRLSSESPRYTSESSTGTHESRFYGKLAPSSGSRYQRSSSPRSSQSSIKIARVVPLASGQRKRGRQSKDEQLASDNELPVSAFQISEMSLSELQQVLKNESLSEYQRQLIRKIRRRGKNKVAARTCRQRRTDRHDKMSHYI

Chain of Photoreceptor-specific nuclear receptor (Q9Y5X4 whole entry, the tested form may be a part): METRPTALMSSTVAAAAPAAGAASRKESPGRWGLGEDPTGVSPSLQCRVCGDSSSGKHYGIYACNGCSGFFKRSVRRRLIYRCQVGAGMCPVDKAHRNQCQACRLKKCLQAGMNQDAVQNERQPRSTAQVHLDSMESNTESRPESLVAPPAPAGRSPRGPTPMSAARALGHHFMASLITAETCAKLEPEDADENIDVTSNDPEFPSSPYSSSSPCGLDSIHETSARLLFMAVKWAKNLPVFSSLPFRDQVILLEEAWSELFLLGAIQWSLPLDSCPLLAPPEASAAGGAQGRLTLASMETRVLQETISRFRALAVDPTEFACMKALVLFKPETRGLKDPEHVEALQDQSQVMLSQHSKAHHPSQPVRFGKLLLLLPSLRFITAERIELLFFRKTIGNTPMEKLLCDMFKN

## O=C(Nc1ccccc1Cl)/C(Cl)=C(\Cl)[S+]([O-])c1ccccc1 (centres undefined)
[1]
  AC50: 10.8 µM (active)
[2]
  IC50: 2.92 µM (active)

## CCCCCCCCCCCCCCCCn1cc[n+](C)c1
[3]
  IC50: 11.4 µM (not active)

## Cc1ccc(C)c(S(=O)(=O)/N=C2\C=C(NS(=O)(=O)c3ccccc3)C(=O)c3ccccc32)c1
Protein skinhead-1
  IC50: > 100 µM (inactive)
